Results published in PubChem BioAssay (NCI).
“And” between values parts separate entries of the source, which are not always exact repeats. Equal values may be shown once.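 96-well plates; 48 h exposure; 5 concentrations. Endpoints by linear interpolation between flanking doses. Not reached: highest tested concentration assigned. Here, GI50 denotes the concentration required for 50% inhibition of growth. TGI: concentration producing complete growth inhibition.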

Experiments:
Experiment in all cases: NCI anticancer screen, dose series, 48 h
HCT-15 colon = test system: HCT-15 colon
UACC-257 melanoma = test system: UACC-257 melanoma
OVCAR-8 ovarian = test system: OVCAR-8 ovarian
T-47D breast = test system: T-47D breast
A549 NSCLC = test system: A549 NSCLC
HL-60(TB) leukemia = test system: HL-60(TB) leukemia
SNB-75 CNS = test system: SNB-75 CNS
TK-10 renal = test system: TK-10 renal
KM12 colon = test system: KM12 colon
HT29 colon = test system: HT29 colon

Structure (SMILES)	GI50 (HCT-15 colon)	TGI (HCT-15 colon)	GI50 (UACC-257 melanoma)	TGI (UACC-257 melanoma)	GI50 (OVCAR-8 ovarian)	TGI (OVCAR-8 ovarian)	GI50 (T-47D breast)	TGI (T-47D breast)	GI50 (A549 NSCLC)	TGI (A549 NSCLC)	GI50 (HL-60(TB) leukemia)	TGI (HL-60(TB) leukemia)	GI50 (SNB-75 CNS)	TGI (SNB-75 CNS)	GI50 (TK-10 renal)	TGI (TK-10 renal)	GI50 (KM12 colon)	TGI (KM12 colon)	GI50 (HT29 colon)	TGI (HT29 colon)
C=C(CNCc1ccccc1)c1ccc(C(=O)Nc2ccccc2N)cc1	36.5 µM	> 100 µM	1.54 µM	15.5 µM	2.17 µM	> 100 µM	1.59 µM	> 100 µM	7.34 µM	> 100 µM	1.2 µM	> 100 µM	38.2 µM	93 µM	4.68 µM	21.7 µM	4.05 µM	21.3 µM	–	–
O=C1/C(=C/c2ccc(Br)cc2)COc2ccc(O)c(O)c21	0.302 µM	1.51 µM	1.71 µM	6.78 µM	0.675 µM	–	0.906 µM	3.16 µM	1.77 µM	6.77 µM	0.442 µM	3.28 µM	1.23 µM	3.01 µM	1.7 µM	3.2 µM	1.11 µM	3.35 µM	2.3 µM	5.79 µM
O=C(Nc1ccc(Cl)cc1F)c1ccccc1O	1.92 µM	14.2 µM	2.9 µM	8.86 µM	3.61 µM	> 100 µM	2.49 µM	> 100 µM	3.6 µM	> 100 µM	2.53 µM	6.16 µM	3.26 µM	> 100 µM	4.54 µM	47.1 µM	2.97 µM	20.3 µM	5.32 µM	92.9 µM
CCN(CC)CCOc1ccc(-c2nc3cc(Cl)ccc3s2)cc1	1.19 µM	2.42 µM	1.78 µM	3.62 µM	1.99 µM	4.02 µM	1.5 µM	4.11 µM	1.75 µM	3.47 µM	1.56 µM	5.12 µM	1.21 µM	2.65 µM	1.31 µM	2.61 µM	–	–	0.6 µM	1.84 µM
Cc1ccc(C)c(C2=C(c3cn(C)c4ccccc34)C(=O)NC2=O)c1	9.33 µM	> 25 µM	> 25 µM	> 25 µM	> 24.2 µM	> 25 µM	14 µM	> 25 µM	18.9 µM	> 25 µM	6.7 µM	16.2 µM	1.15 µM	> 25 µM	> 25 µM	> 25 µM	12.6 µM	> 25 µM	> 16 µM	> 25 µM
CCN(CC)CCC(CNc1ccnc2cc(Cl)ccc12)c1ccc(OC)cc1 (configuration not stated)	3.06 µM and 3.51 µM	12.3 µM and 16.5 µM	2.19 µM and 1.72 µM	3.96 µM and 3.48 µM	5.76 µM and 4.78 µM	27.2 µM and 19.3 µM	2.59 µM and 2.73 µM	6.66 µM and 7.85 µM	16.3 µM and 11.3 µM	32.5 µM and 26.1 µM	6.59 µM and 3.76 µM	25.3 µM and 20.4 µM	3.39 µM and 2.35 µM	17.3 µM and 7.84 µM	3.97 µM and 1.99 µM	14.2 µM and 5.15 µM	12.8 µM and 5.62 µM	28.6 µM and 21.5 µM	2.47 µM and 0.6 µM	13.2 µM and 11.2 µM
O=C(Nc1nc2ccc(C(F)(F)F)cc2s1)c1cc(Cl)ccc1O	0.346 µM	12.9 µM	0.646 µM	5.53 µM	1.12 µM	> 100 µM	0.303 µM	2.96 µM	1.51 µM	> 100 µM	1.04 µM	3.7 µM	1.59 µM	7.24 µM	0.76 µM	34 µM	0.611 µM	22 µM	2.1 µM	74.7 µM
N#Cc1c(NN)n(C2OC(CO)C(O)C2O)c2ncnc(N)c12 (configuration not stated)	0.0198 µM	–	0.267 µM	1.66 µM	0.257 µM	7.56 µM	0.0191 µM	0.118 µM	0.0353 µM	> 100 µM	0.022 µM	0.109 µM	0.388 µM	9.56 µM	0.247 µM	7.93 µM	0.0874 µM	1.72 µM	0.0351 µM	–
O=C(CNc1ccc(Cl)cc1)Nc1ccc(-c2nc3ccccc3s2)cc1	1.84 µM	5.32 µM	7.7 µM	21.6 µM	6.15 µM	17.8 µM	5.2 µM	16.6 µM	8.1 µM	27.4 µM	2.23 µM	6.05 µM	3.39 µM	14.8 µM	5.98 µM	13.7 µM	5.39 µM	16.5 µM	3.8 µM	11.4 µM
NC(=O)NC1C(c2ccccc2)=C1c1ccccc1	–	32.4 µM	–	38.4 µM	–	25.5 µM	–	> 100 µM	–	74.6 µM	–	68.3 µM	–	–	–	53.7 µM	–	62.2 µM	–	46.1 µM
COc1ccc(-n2cc(-c3cc(OC)c(OC)c(OC)c3)c(C(=O)C(F)(F)F)c2C)cc1	59.4 µM	> 100 µM	15.7 µM	> 100 µM	> 100 µM	> 100 µM	3.81 µM	> 100 µM	28 µM	> 100 µM	37.3 µM	> 100 µM	13.8 µM	> 100 µM	35.7 µM	> 100 µM	32.6 µM	> 100 µM	9.75 µM	> 100 µM
COc1cc(C2CC(c3cccc(Br)c3)=NN2C(C)=O)cc(OC)c1OC (configuration not stated)	0.328 µM	29.5 µM	25.3 µM	> 84.1 µM	0.618 µM	> 46.2 µM	0.372 µM	29.7 µM	0.635 µM	> 100 µM	0.191 µM	0.553 µM	0.368 µM	> 100 µM	16.5 µM	72.2 µM	0.247 µM	18 µM	0.284 µM	14.9 µM
CCOC(=O)CCCn1c(SC)nc2[nH]cc(-c3ccccc3)c2c1=O	27.1 µM	> 100 µM	22.7 µM	44.3 µM	19 µM	58.9 µM	18.2 µM	61.4 µM	12.2 µM	36.2 µM	1.05 µM	15 µM	15.1 µM	40.1 µM	46.1 µM	> 100 µM	16.8 µM	38.2 µM	19.5 µM	59.7 µM
CC(CCC=O)CCOCc1ccccc1 (configuration not stated)	–	> 100 µM	–	> 100 µM	–	> 100 µM	–	> 100 µM	–	> 100 µM	–	45.1 µM	–	> 100 µM	–	> 100 µM	–	> 100 µM	–	> 100 µM
CCN1CCN(C(c2ccc(C(F)(F)F)cc2)c2ccc3cccnc3c2O)CC1 (configuration not stated)	3.74 µM	17.6 µM	2.06 µM	6.69 µM	1.85 µM	13.5 µM	4.19 µM	15.2 µM	1.31 µM	12.1 µM	2.09 µM	5.6 µM	1.84 µM	17 µM	10 µM	22 µM	0.89 µM	16.8 µM	5.31 µM	21 µM
O=C(O)C1C2C=CC(O2)C1C(=O)NCc1ccccn1 (configuration not stated)	–	> 100 µM	–	> 100 µM	–	> 100 µM	–	> 100 µM	–	> 100 µM	–	> 100 µM	–	> 100 µM	–	> 100 µM	–	> 100 µM	–	> 100 µM
O=C1c2cccc(NCCCNCCO)c2C(=O)c2cccc(NCCCNCCO)c21	–	19.8 µM and 23.3 µM	–	11.2 µM and 14 µM	–	4.57 µM and 5.66 µM	–	8.89 µM	–	7.34 µM and 4.62 µM	–	3.86 µM and 6.02 µM	0.912 µM and 2.44 µM	2.58 µM and 6.58 µM	–	8.6 µM and 13.4 µM	–	4.43 µM and 5.84 µM	–	4.43 µM and 5.38 µM
Clc1nc2ccccc2nc1CI	2.41 µM	6.46 µM	12.9 µM	26.2 µM	3.42 µM	12.4 µM	2.5 µM	6.76 µM	19.2 µM	38.6 µM	2.86 µM	18.2 µM	9.39 µM	30.1 µM	3.94 µM	8.7 µM	18.2 µM	46.5 µM	3.93 µM	13.5 µM
C=C1CC[C@@H]2[C@](C)(COC(C)=O)[C@H](OC(C)=O)CC[C@@]2(C)[C@@H]1CC(Sc1ccccc1)C1=CCOC1=O (some centres not stated)	0.877 µM	2.59 µM	1.91 µM	3.71 µM	1.46 µM	4.7 µM	2.01 µM	8.32 µM	2.73 µM	7.77 µM	0.43 µM	2.27 µM	1.3 µM	2.9 µM	2.83 µM	5.54 µM	1.4 µM	2.96 µM	1.77 µM	3.77 µM
S=C1NC2(CCCCCC2)NN1c1ccccc1	–	> 100 µM	–	> 100 µM	–	> 100 µM	–	> 100 µM	–	> 100 µM	–	3.64 µM	–	> 100 µM	–	> 100 µM	–	> 100 µM	–	> 100 µM
N#CC(=C1C=CC(=NO)C=C1)c1ccccc1	2.22 µM	12.3 µM	2.12 µM	17.8 µM	2.71 µM	12.3 µM	0.47 µM	2.99 µM	4.58 µM	> 37.2 µM	1.19 µM	4.1 µM	2.14 µM	8.99 µM	4.47 µM	13.3 µM	0.355 µM	1.2 µM	2.16 µM	6.69 µM
CC(=O)c1cccc(NC(=O)C(=O)NNc2n[nH]c(=S)n2N)c1	–	15.9 µM	–	9.17 µM	–	24.1 µM	–	13.6 µM	–	14.5 µM	–	32.1 µM	–	25.2 µM	–	69.9 µM	–	30.9 µM	–	31.8 µM
O=C(Cc1ccc(/C=C/C(=O)c2ncc[nH]2)cc1)Nc1cc(F)c(F)c(F)c1	2.39 µM	8.25 µM	4.49 µM	11.9 µM	5.58 µM	> 25 µM	2.91 µM	10.5 µM	4.13 µM	17.8 µM	4.28 µM	11.2 µM	1.98 µM	> 25 µM	4.51 µM	10.1 µM	2.81 µM	6.85 µM	0.861 µM	4.17 µM
Cc1cc(I)cc(CN(C)CCCN2CCCCCCC2)c1O	10.9 µM	23.3 µM	16.2 µM	34.3 µM	19.8 µM	43.4 µM	19.6 µM	52.8 µM	20.1 µM	45.5 µM	2.26 µM	7.97 µM	15.4 µM	30.2 µM	13.4 µM	27 µM	14.2 µM	31 µM	6.26 µM	21.1 µM
[Cl][Hg][c]1cc(Br)cc(Br)c1	1.6 µM	3.22 µM	10 µM	21.6 µM	2.78 µM	7.64 µM	2 µM	7.88 µM	12.9 µM	30.4 µM	1.95 µM	4.24 µM	1.24 µM	3.43 µM	2.9 µM	6.35 µM	2.78 µM	11.8 µM	2.62 µM	10.6 µM
O/N=C/C1C(OCc2ccccc2)C(OCc2ccccc2)C(OCc2ccccc2)CN1Cc1ccccc1 (configuration not stated)	25.7 µM and 9.77 µM	> 100 µM	23.3 µM and 2.45 µM	72.5 µM and 15.7 µM	–	39.9 µM and > 100 µM	–	> 100 µM	–	25 µM and > 100 µM	–	80.4 µM	11.5 µM and > 100 µM	33.1 µM and > 100 µM	22 µM and 3.08 µM	58.8 µM and > 100 µM	14.4 µM and 2.86 µM	47.2 µM and 19.6 µM	10.7 µM and 3.59 µM	78.7 µM and > 100 µM
CC(C)CCN1c2nc(Nc3cc(F)c(O)c(F)c3)ncc2N(C)C(=O)C1C (configuration not stated)	3.5 µM	> 49.1 µM	17.1 µM	> 88.2 µM	17.6 µM	> 100 µM	6.36 µM	25.9 µM	4.88 µM	37.6 µM	2.14 µM	6.47 µM	13.4 µM	44.3 µM	4.34 µM	> 87.2 µM	2.92 µM	14.7 µM	5.83 µM	46.7 µM
NC(=Nc1c([N+](=O)[O-])cnc2ccccc12)N1CCOCC1	–	> 100 µM	–	–	–	> 100 µM	–	> 100 µM	–	> 100 µM	–	> 100 µM	–	> 100 µM	–	> 100 µM	–	> 100 µM	–	> 100 µM
COc1cc(C#CC(=O)OC/C=C/c2ccc3c(c2)OCO3)cc(OC)c1OC	–	78.8 µM	–	70.9 µM	–	> 100 µM	–	> 100 µM	–	> 100 µM	–	62.9 µM	–	–	–	60.8 µM	–	> 100 µM	–	> 100 µM
